Tests used:
[1] = tested on: HCV replicon cells (2209-23); assay: HCV replicon assay (Renilla luciferase reporter); format: cell-based, HCV genotype 1b; details: Hepatitis C virus, 72 h; three days incubation
[2] = target: T1, HCV polymerase (NS5B570n-Con1) (Hepatitis C virus genotype 1b, UniProt Q9WMX2); assay: HCV NS5B RNA polymerase activity assay; format: biochemical, HCV Con1 strain
T1 construct: contains a 21 amino acid deletion at the C-terminus relative to the full-length HCV polymerase; 6-histidine (N); made in house; host or cells: E. coli BL21(DE) pLysS, plasmid pET17b
Procedure: The enzymatic activity of HCV polymerase (NS5B570n-Con1) was measured as the incorporation of radiolabeled nucleotide monophosphates into acid insoluble RNA products. Unincorporated radiolabeled substrate was removed by filtration and scintillant was added to the washed and dried filter plate containing radiolabeled RNA product. The amount of RNA product generated by NS5B570-Con1 at the end of the reaction was directly proportional to the amount of light emitted by the scintillant.
The N-terminal 6-histidine tagged HCV polymerase, derived from HCV Con1 strain, genotype 1b (NS5B570n-Con1) contains a 21 amino acid deletion at the C-terminus relative to the full-length HCV polymerase and was purified from E. coli strain BL21(DE) pLysS. The construct, containing the coding sequence of HCV NS5B Con1 (GenBank accession number AJ242654) was inserted into the plasmid construct pET17b, downstream of a T7 promoter expression cassette and transformed into E. coli. A single colony was grown overnight as a starter culture and later used inoculate 10 L of LB media supplemented with 100 μg/mL ampicillin at 37° C. Protein expression was induced by the addition of 0.25 mM isopropyl-β-D-thiogalactopyranoside (IPTG) when optical density at […] of the culture was between 0.6 and 0.8 and cells were harvested after 16 to 18 h at 30° C. NS5B570n-Con1 was purified to homogeneity using a three-step protocol including subsequent column chromatography on Ni-NTA, SP-Sepharose HP and Superdex 75 resins.
Each 50 μl enzymatic reaction contained 20 nM RNA template derived from the complementary sequence of the Internal Ribosome Entry Site (cIRES), 20 nM NS5B570n-Con1 enzyme, 0.5 μCi of tritiated UTP (Perkin Elmer catalog no. TRK-412; specific activity: 30 to 60 Ci/mmol; stock solution concentration from 7.5×10^-5 M to 20.6×10^-6 M), 1 μM each ATP, CTP, and GTP, 40 mM Tris-HCl pH 8.0, 40 mM NaCl, 4 mM DTT (dithiothreitol), 4 mM MgCl2, and 5 μl of compound serial diluted in DMSO. Reaction mixtures were assembled in 96-well filter plates (cat #MADVN0B, Millipore Co.) and incubated for 2 h at 30° C. Reactions were stopped by addition of 10% final (v/v) trichloroacetic acid and incubated for 40 min at 4° C. Reactions were filtered, washed with 8 reaction volumes of 10% (v/v) trichloroacetic acetic acid, 4 reaction volumes of 70% (v/v) ethanol, air dried, and 25 μl of scintillant (Microscint 20, Perkin-Elmer) was added to each reaction well.
The amount of light emitted from the scintillant was converted to counts per minute (CPM) on a Topcount® plate reader (Perkin-Elmer, Energy Range: Low, Efficiency Mode: Normal, Count Time: 1 min, Background Subtract: none, Cross talk reduction: Off).
Data was analyzed in Excel® (Microsoft®) and ActivityBase® (Idbs®). The reaction in the absence of enzyme was used to determine the background signal, which was subtracted from the enzymatic reactions. Positive control reactions were performed in the absence of compound, from which the background corrected activity was set as 100% polymerase activity. All data was expressed as a percentage of the positive control. The compound concentration at which the enzyme-catalyzed rate of RNA synthesis was reduced by 50% (IC50) was calculated by fitting
[formula] equation (i) to the data. where “Y” corresponds to the relative enzyme activity (in %), “% Min” is the residual relative activity at saturating compound concentration, “% Max” is the relative maximum enzymatic activity, “X” corresponds to the compound concentration, and “S” is the Hill coefficient (or slope).

in vitro = details: human
HCV = details: monotherapy; cited from earlier work

With `COc1cc(CNC(=O)c2cccc(NS(C)(=O)=O)c2)c(-c2ccc[nH]c2=O)cc1C(C)(C)C` [Compound I-63] the IC50 [1] was 34 nM, the IC50 [2] was 12 nM and the melting point was 259 to 260 °C. It also gave a CC50 (in vitro) of 43700 nM.

For `COc1cc(CNC(=O)c2ccc(O)cc2)c(-c2ccc[nH]c2=O)cc1C(C)(C)C` [Compound I-38, N-[4-tert-Butyl-5-methoxy-2-(2-oxo-1,2-dihydro-pyridin-3-yl)-benzyl]-4-hydroxy-benzamide], the IC50 [1] was 310 nM, the IC50 [2] was 16 nM and the melting point was 205 to 210 °C. For the same compound, the CC50 (in vitro) was 92900 nM.

Compound `COc1cc(CN2CCCS2(=O)=O)c(-c2ccc[nH]c2=O)cc1C(C)(C)C` [Compound I-21, 3-[5-tert-Butyl-2-(1,1-dioxo-1λ^6-isothiazolidin-2-ylmethyl)-4-methoxy-phenyl]-1H-pyridin-2-one] has an IC50 [1] of 168 nM, an IC50 [2] of 17 nM and a melting point of 109.4 to 126.9 °C.

In the case of `NC(=O)c1ncn([C@@H]2O[C@H](CO)[C@@H](O)[C@H]2O)n1` [ribavirin, 1-((2R,3R,4S,5R)-3,4-Dihydroxy-5-hydroxymethyl-tetrahydro-furan-2-yl)-1H-[1,2,4]triazole-3-carboxylic acid amide], the “effect on serum levels of HCV-RNA” value (HCV) is given as “does not lower serum levels of HCV-RNA” and the “patients with serum amino transferase levels reduced to normal” value (HCV) is given as 40%.

Compound `COc1cc(C(=O)N2CCC(F)(F)CC2)c(-c2ccc[nH]c2=O)cc1C(C)(C)C` [Compound I-62] has an IC50 [2] of 955 nM and a melting point of 223 to 224 °C.

`COc1cc(C(=O)N(C)Cc2ccncc2)c(-c2ccc[nH]c2=O)cc1C(C)(C)C` [Compound I-58] showed an IC50 [2] of 1140 nM and a melting point of 199 to 201 °C.

For `COc1cc(CN2C(=O)CCC2=O)c(-c2ccc[nH]c2=O)cc1C(C)(C)C` [Compound I-29], the IC50 [2] was 68 nM and the melting point was 112.2 to 124.9 °C.

In the case of `COc1cc(C(=O)O)c(-c2ccc[nH]c2=O)cc1C(C)(C)C` [Compound I-4, 4-tert-Butyl-5-methoxy-2-(2-oxo-1,2-dihydro-pyridin-3-yl)-benzoic acid], the IC50 [2] is reported as 27 nM and the melting point is reported as 244 to 245 °C.

With `COc1cc(CN2C(=O)CC[C@@H]2CO)c(-c2ccc[nH]c2=O)cc1C(C)(C)C` [Compound I-83] the IC50 [2] was 146 nM and the melting point was 150 to 152 °C.

With `COc1cc(CN(c2ccccc2)S(C)(=O)=O)c(-c2ccc[nH]c2=O)cc1C(C)(C)C` [Compound I-34] the IC50 [1] was 936 nM, the IC50 [2] was 13 nM and the melting point was 226 to 227 °C. For the same compound, the CC50 (in vitro) was 44200 nM.

Work on `COc1cc(C(=O)N(C)Cc2ccc(F)cc2)c(-c2ccc[nH]c2=O)cc1C(C)(C)C` [Compound I-77] yielded an IC50 [2] of 611 nM and a melting point of 218 to 220 °C.

`COc1cc(C(=O)N2CC(O)C2)c(-c2ccc[nH]c2=O)cc1C(C)(C)C` [Compound I-68] showed an IC50 [2] of 211 nM and a melting point of 236 to 238 °C.

For `COc1cc(CNC(=O)[C@H]2CC[C@H](NS(C)(=O)=O)C2)c(-c2ccc[nH]c2=O)cc1C(C)(C)C` [Compound I-81, (1S,3S)-3-Methanesulfonylamino-cyclopentanecarboxylic acid 4-tert-butyl-5-methoxy-2-(2-oxo-1,2-dihydro-pyridin-3-yl)-benzylamide], the IC50 [1] was 238 nM, the IC50 [2] was 22 nM and the melting point was 158 to 160 °C.

Work on `COc1cc(C(=O)N2CCC(C#N)CC2)c(-c2ccc[nH]c2=O)cc1C(C)(C)C` [Compound I-56, 1-[4-tert-Butyl-5-methoxy-2-(2-oxo-1,2-dihydro-pyridin-3-yl)-benzoyl]-piperidine-4-carbonitrite] yielded an IC50 [2] of 432 nM and a melting point of 213 to 215 °C.

For `COc1cc(CN2CCCCS2(=O)=O)c(-c2ccc[nH]c2=O)cc1C(C)(C)C` [Compound I-16], the IC50 [2] was 35 nM and the melting point was 225.8 to 226.1 °C.

For `CCN(Cc1cc(OC)c(C(C)(C)C)cc1-c1ccc[nH]c1=O)S(C)(=O)=O` [Compound I-27], the IC50 [2] was 44 nM and the melting point was 245 to 246 °C.

Compound `COc1cc(CN(C2CCNCC2)S(C)(=O)=O)c(-c2ccc[nH]c2=O)cc1C(C)(C)C` [Compound I-57] has an IC50 [2] of 57 nM and a melting point of 205 to 208 °C.

Work on `COc1cc(C#N)c(-c2ccc[nH]c2=O)cc1C(C)(C)C` [Compound I-91] yielded an IC50 [2] of 374 nM and a melting point of 247 to 249 °C.
